Assay results as given in patent publication US10100010B1, “4-methoxy pyrrole derivatives or salts thereof and pharmaceutical composition comprising the same” (Daewoong Pharmaceutical Co., Ltd., priority 2015, dated 2018).
Counter-ions that a name gives are not always drawn. Like-named read-outs stand apart in the source and are kept apart here.

Legend:
Type in all cases: cell-based
M2 = target: T1, M2 (Homo sapiens, UniProt P08172); test: GPCR Calcium Flux assay (FLIPR tetra, Eurofins), M2; conditions: for inhibition at 10 µM: read-out: inhibition rate (%) M2
T1 sequence (P08172 1-466): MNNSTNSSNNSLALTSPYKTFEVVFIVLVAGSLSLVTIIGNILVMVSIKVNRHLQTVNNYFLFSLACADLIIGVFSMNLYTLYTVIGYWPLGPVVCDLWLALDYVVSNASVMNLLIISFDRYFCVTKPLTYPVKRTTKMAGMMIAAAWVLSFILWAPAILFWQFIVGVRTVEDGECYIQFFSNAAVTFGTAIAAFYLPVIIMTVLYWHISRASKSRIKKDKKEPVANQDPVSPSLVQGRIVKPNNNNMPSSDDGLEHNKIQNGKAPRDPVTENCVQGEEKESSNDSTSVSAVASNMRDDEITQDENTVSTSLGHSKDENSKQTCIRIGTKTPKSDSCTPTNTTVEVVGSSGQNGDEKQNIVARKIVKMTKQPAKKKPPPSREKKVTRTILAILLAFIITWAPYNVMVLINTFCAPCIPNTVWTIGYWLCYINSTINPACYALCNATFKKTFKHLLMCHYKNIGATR
Method: (§1) In order to confirm whether the compounds prepared in the above Examples act as an agonist or antagonist against GPCR Target, Calcium Flux assay was performed in an assay plate in which the compounds prepared in the Examples, vehicle controls, and reference compounds were added, using a Fluorometric imaging plate reader (FLIPR tetra) equipment.
(§2) Calcium Flux assay was evaluated by entrusting the GPCR profiler assay in Safety panel assays with Eurofins. By using the Fluo-8AM calcium dye, excitation was measured at a wavelength in the range of 470 to 495 nm and Emission was measured at a wavelength in the range of 515-575 nm. GPCR Assay Buffer for Calcium Flux assay was prepared by adding 20 mM of HEPES and 2.5 mM of Probenecid to Hanks Balanced Salt Solution (HBSS) to have pH 7.4. The Compounds of Examples for evaluation of the GPCR were diluted with DMSO at a concentration of 10 mM to make a stock and then prepared by diluting in the GPCR Assay Buffer at the concentration equivalent to three times the final concentration. First, for the evaluation of GPCRs, the inhibitory activity of the compounds of the Examples was evaluated at a single concentration of 10 uM, and then the respective selected targets were four fold-diluted from 10 uM to the low side to calculate 50% inhibitory concentration (IC50), prepared at the total 8 concentrations of 10, 2.5, 0.62, 0.15, 0.04, 0.01, 0.0024, 0.0006 uM, and Calcium Flux assay for GPCR was conducted. In order to evaluate the agonist and antagonist, % inhibition rate against GPCR activity before and after treatment of the compounds and the inhibitory activity of the compounds of the Examples were determined.
(§3) As a result, when the efficacy of […] and acetylcholine of the compounds prepared in the Examples was 100%, the inhibition rate (%) at a single concentration of 10 uM was evaluated and shown in Table 8.

M1 = target: T2, M1 (Homo sapiens, UniProt P11229); test: GPCR Calcium Flux assay (FLIPR tetra, Eurofins), M1; conditions: for inhibition at 10 µM: read-out: inhibition rate (%) M1; for IC50: 8 concentrations 10 to 0.0006 uM, read-out: 50% inhibitory concentration (IC50) M1
T2 sequence (P11229 1-460): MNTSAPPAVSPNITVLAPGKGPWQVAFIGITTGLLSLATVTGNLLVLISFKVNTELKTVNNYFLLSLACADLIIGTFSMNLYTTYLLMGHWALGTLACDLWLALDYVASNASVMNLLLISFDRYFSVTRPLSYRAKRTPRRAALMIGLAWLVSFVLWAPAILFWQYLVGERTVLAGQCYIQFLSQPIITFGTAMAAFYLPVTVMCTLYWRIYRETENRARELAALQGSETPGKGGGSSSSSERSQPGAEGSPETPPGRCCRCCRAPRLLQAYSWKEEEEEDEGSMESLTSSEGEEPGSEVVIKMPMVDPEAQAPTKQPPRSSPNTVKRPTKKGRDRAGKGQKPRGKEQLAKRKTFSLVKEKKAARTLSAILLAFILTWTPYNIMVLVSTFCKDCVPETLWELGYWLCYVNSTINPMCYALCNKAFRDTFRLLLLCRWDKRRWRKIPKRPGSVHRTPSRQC
Method: as §1, §2, §3

5-HT2A = 5-HT2A (Homo sapiens, UniProt P28223); test: GPCR Calcium Flux assay (FLIPR tetra, Eurofins), 5-HT2A; conditions: for IC50: 8 concentrations 10 to 0.0006 uM, read-out: 50% inhibitory concentration (IC50) 5-HT2A; for inhibition at 10 µM: read-out: inhibition rate (%) 5-HT2A
Chain of 5-HT2A (P28223 whole entry): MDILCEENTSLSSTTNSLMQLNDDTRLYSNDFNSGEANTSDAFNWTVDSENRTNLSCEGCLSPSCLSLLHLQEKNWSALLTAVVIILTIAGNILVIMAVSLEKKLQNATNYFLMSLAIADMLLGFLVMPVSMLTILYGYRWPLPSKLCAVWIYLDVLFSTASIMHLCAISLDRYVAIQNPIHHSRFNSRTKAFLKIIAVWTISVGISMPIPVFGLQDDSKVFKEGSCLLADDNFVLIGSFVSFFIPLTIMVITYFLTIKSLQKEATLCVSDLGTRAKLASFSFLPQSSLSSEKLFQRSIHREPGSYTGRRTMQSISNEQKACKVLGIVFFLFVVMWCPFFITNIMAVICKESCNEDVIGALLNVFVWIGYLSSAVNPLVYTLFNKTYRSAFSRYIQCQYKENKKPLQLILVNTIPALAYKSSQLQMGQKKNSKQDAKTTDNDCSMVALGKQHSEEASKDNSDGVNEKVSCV
Method: as §1, §2, §3

Row | Compound | inhibition at 10 µM (M2; single concentration of 10 uM) | inhibition at 10 µM (M1; single concentration of 10 uM) | IC50 (5-HT2A) | inhibition at 10 µM (5-HT2A; single concentration of 10 uM) | IC50 (M1) | IC50 (M2; 8 concentrations 10 to 0.0006 uM, read-out: 50% inhibitory concentration (IC50) M2) | inhibition at 10 µM (M2) | inhibition at 10 µM (M1) | inhibition at 10 µM (5-HT2A)
1 | CNCc1cn(S(=O)(=O)c2cccc(Cl)c2)c(-c2c(F)cccc2F)c1OC [Example 14, 1-(5-(2,6-difluorophenyl)-1-((3-chlorophenyl)sulfonyl)-4-methoxy-1H-pyrrol-3-yl)-N-methylmethanamine hydrochloride] | 48.1% | 94.9% | 210 nM | 99.9% | – | – | – | – | –
2 | CNCc1cn(S(=O)(=O)c2cccc(OC)c2)c(-c2ccccc2Cl)c1OC [Example 5, 1-(5-(2-chlorophenyl)-4-methoxy-1-((3-methoxyphenyl)sulfonyl)-1H-pyrrol-3-yl)-N-methylmethanamine hydrochloride] | 75.1% | 93.7% | – | 69.1% | – | – | – | – | –
3 | CNCc1cn(S(=O)(=O)c2cccc(C)c2)c(-c2ccc(F)cc2F)c1OC [Example 10, 1-(5-(2,4-difluorophenyl)-1-((3-methylphenyl)sulfonyl)-4-methoxy-1H-pyrrol-3-yl)-N-methylmethanamine hydrochloride] | 77.6% | 96.2% | 360 nM | 101% | 1300 nM | – | – | – | –
4 | CNCc1cn(S(=O)(=O)c2ccc(F)c(F)c2)c(-c2c(F)cccc2F)c1OC [Example 19, 1-(5-(2,6-difluorophenyl)-1-((3,4-difluorophenyl)sulfonyl)-4-methoxy-1H-pyrrol-3-yl)-N-methylmethanamine hydrochloride] | 102% | 101% | 120 nM | 102% | 430 nM | 820 nM | – | – | –
5 | CNCc1cn(S(=O)(=O)c2cccc(Cl)c2)c(-c2ccccc2F)c1OC [Example 1, 1-(5-(2-fluorophenyl)-4-methoxy-1-((3-chlorophenyl)sulfonyl)-1H-pyrrol-3-yl)-N-methylmethanamine hydrochloride] | 66.5% | 99.6% | 250 nM | 96.4% | 1700 nM | – | – | – | –
6 | CNCc1cn(S(=O)(=O)c2cccc(OC)c2)c(-c2c(F)cccc2F)c1OC [Example 17, 1-(5-(2,6-difluorophenyl)-1-((3-methoxyphenyl)sulfonyl)-4-methoxy-1H-pyrrol-3-yl)-N-methylmethanamine hydrochloride] | 60.1% | 85.2% | 2200 nM | 102% | – | – | – | – | –
7 | CNCc1cn(S(=O)(=O)c2cccc(C)c2)c(-c2c(F)cccc2F)c1OC [Example 16, 1-(5-(2,6-difluorophenyl)-1-((3-methylphenyl)sulfonyl)-4-methoxy-1H-pyrrol-3-yl)-N-methylmethanamine fumarate] | – | – | 58 nM | – | 1900 nM | – | 69.7% | 95.4% | 102%
8 | CNCc1cn(S(=O)(=O)c2cccc(OC)c2)c(-c2cc(F)ccc2F)c1OC [Example 33, 1-(5-(2,5-difluorophenyl)-1-((3-methoxyphenyl)sulfonyl)-4-methoxy-1H-pyrrol-3-yl)-N-methylmethanamine hydrochloride] | 29% | 81.5% | 1700 nM | 96.7% | – | – | – | – | –
9 | CNCc1cn(S(=O)(=O)c2cccc(C(F)(F)F)c2)c(-c2c(F)ccc(F)c2F)c1OC [Example 29, 1-(1-((3-trifluoromethylphenyl)sulfonyl)-4-methoxy-5-(2,3,6-trifluorophenyl)-1H-pyrrol-3-yl)-N-methylmethanamine hydrochloride] | 19.4% | 68.4% | – | 35.7% | – | – | – | – | –
